Like-named read-outs stand apart in the source and are kept apart here.
System: HIV-1 (HIVIIIB) replication in MT2 cell line
Test: HIV-1 replication in MT2 cell line with and without 30% human serum (viral RT activity in supernatant)
Assay type: cell-based
Settings: Human immunodeficiency virus 1, MT2 cells, average IC50 if tested more than once
Method in brief: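 MT2 cells infected with HIV-1 IIIB at MOI 0.5 for 3 h, washed, seeded at 0.5×10^6/ml in RPMI/10% FBS with serially diluted compound, with or without 30% human serum; medium and compound refreshed on day 3. RT activity in supernatant at day 5; IC50 and IC90 derived.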

[1] = with 30% human serum, read-out: MT2 (HIVIIIB) with HS 30% IC50 range
[2] = without human serum, read-out: MT2 (HIVIIIB) IC50 range

Row | SMILES | IC50 [1] [nM] | IC50 [2] [nM]
1 | CC(C)C1=C2[C@H]3CC[C@@H]4[C@@]5(C)CC[C@H](OC(=O)CC(C)(C)C(=O)O)C(C)(C)[C@@H]5CC[C@@]4(C)[C@]3(C)CC[C@@]2(NC(=O)CN2CCCC2)CC1=O [19-38, 3β-O-(3′,3′-Dimethylsuccinyl)-17β-(2-pyrrolidin-1-yl-acetamido)-21-oxolup-18-ene] | < 199 | –
2 | CC(C)C1=C2[C@H]3CC[C@@H]4[C@@]5(C)CC[C@H](OC(=O)CC(C)(C)C(=O)O)C(C)(C)[C@@H]5CC[C@@]4(C)[C@]3(C)CC[C@@]2(NC(=O)CCN2CCCCC2)CC1=O [19-40, 3β-O-(3′,3′-Dimethylsuccinyl)-17β-(3-piperidin-1-yl-propionamido)-21-oxolup-18-ene] | < 199 | –
3 | Cc1nc(C(=O)N[C@@]23CC[C@]4(C)C(CCC5[C@@]6(C)CC[C@H](OC(=O)CC(C)(C)C(=O)O)C(C)(C)C6CC[C@]54C)C2=C(C(C)C)C(=O)C3)cs1 (stereo partly drawn) [19-72, 3β-O-(3′,3′-Dimethylsuccinyl)-17β-(2-methyl-1,3-thiazole-4-amido)-21-oxolup-18-ene] | < 199 | –
4 | CC(C)C1=C2[C@H]3CC[C@@H]4[C@@]5(C)CC[C@H](OC(=O)CC(C)(C)C(=O)O)C(C)(C)[C@@H]5CC[C@@]4(C)[C@]3(C)CC[C@@]2(NC(=O)NCc2ccnn2C)CC1=O [17-76, 3β-O-(3′,3′-Dimethylsuccinyl)-17β-[N′-(2-methyl-2H-pyrazol-3-yl-methyl)-ureido]-21-oxolup-18-ene] | < 199 | –
5 | CC(C)C1=C2C3CCC4[C@@]5(C)CC[C@H](OC(=O)CC(C)(C)C(=O)O)C(C)(C)C5CC[C@@]4(C)[C@]3(C)CC[C@@]2(NC(=O)OC2CCC2)CC1=O (stereo partly drawn) [20-9, 3β-O-(3′,3′-Dimethylsuccinyl)-17β-cyclobutyloxycarbonylamino-21-oxolup-18-ene] | < 199 | –
6 | CC(C)C1=C2C3CCC4[C@@]5(C)CC[C@H](OC(=O)CC(C)(C)C(=O)O)C(C)(C)C5CC[C@@]4(C)[C@]3(C)CC[C@@]2(NC(=O)c2ccccc2C(=O)O)CC1=O (stereo partly drawn) [19-61, 3β-O-(3′,3′-Dimethylsuccinyl)-17β-(2-carboxy-benzamido)-21-oxolup-18-ene] | < 199 | –
7 | Cc1cc(C(=O)N[C@@]23CC[C@]4(C)C(CCC5[C@@]6(C)CC[C@H](OC(=O)CC(C)(C)C(=O)O)C(C)(C)C6CC[C@]54C)C2=C(C(C)C)C(=O)C3)no1 (stereo partly drawn) [19-24, 3β-O-(3′,3′-Dimethylsuccinyl)-17β-(5-methylisoxazole-3-amido)-21-oxolup-18-ene] | < 199 | < 199
8 | CC(C)C1=C2[C@H]3CC[C@@H]4[C@@]5(C)CC[C@H](OC(=O)CC(C)(C)C(=O)O)C(C)(C)[C@@H]5CC[C@@]4(C)[C@]3(C)CC[C@@]2(NC(=O)c2cnccc2O)CC1=O [19-50, 3β-O-(3′,3′-Dimethylsuccinyl)-17β-(4-hydroxypyridine-3-yl)amido-21-oxolup-18-ene] | < 199 | –
9 | CC(C)C1=C2C3CCC4[C@@]5(C)CC[C@H](OC(=O)CC(C)(C)C(=O)O)C(C)(C)C5CC[C@@]4(C)[C@]3(C)CC[C@@]2(NC(=O)OC2CCNCC2)CC1=O (stereo partly drawn) [20-16, 3β-O-(3′,3′-Dimethylsuccinyl)-17β-(piperidine-4-oxycarbonylamino)-21-oxolup-18-ene] | < 199 | –
10 | CC(C)C1=C2[C@H]3CC[C@@H]4[C@@]5(C)CC[C@H](OC(=O)CC(C)(C)C(=O)O)C(C)(C)[C@@H]5CC[C@@]4(C)[C@]3(C)CC[C@@]2(NC(=O)NC2CN(C(=O)OC(C)(C)C)C2)CC1=O [17-33, 3β-O-(3′,3′-Dimethylsuccinyl)-17β-[N′-(1-tert-butyloxycarbonyl-azetidin-3-yl)-ureido]-21-oxolup-18-ene] | < 199 | –
11 | CC(C)C1=C2C3CCC4[C@@]5(C)CC[C@H](OC(=O)CC(C)(C)C(=O)O)C(C)(C)C5CC[C@@]4(C)[C@]3(C)CC[C@@]2(NC(=O)C(=O)N(C)C)CC1=O (stereo partly drawn) [19-74, 3β-O-(3′,3′-Dimethylsuccinyl)-17β-(N′,N′-dimethyl-oxalamido)-21-oxolup-18-ene] | < 199 | –
12 | CC(C)C1=C2C3CCC4[C@@]5(C)CC[C@H](OC(=O)CC(C)(C)C(=O)O)C(C)(C)C5CC[C@@]4(C)[C@]3(C)CC[C@@]2(NC(=O)OC2CCCC2)CC1=O (stereo partly drawn) [20-4, 3β-O-(3′,3′-Dimethylsuccinyl)-17β-cyclopentyloxycarbonylamino-21-oxolup-18-ene] | < 199 | –
13 | CC(C)C1=C2[C@H]3CC[C@@H]4[C@@]5(C)CC[C@H](OC(=O)CC(C)(C)C(=O)O)C(C)(C)[C@@H]5CC[C@@]4(C)[C@]3(C)CC[C@@]2(NC(=O)NC[C@@H]2CCCN2C(=O)OC(C)(C)C)CC1=O [17-34, 3β-O-(3′,3′-Dimethylsuccinyl)-17β-[(3-(S)-1-tert-butyloxycarbonyl-pyrrolidin-2-ylmethyl)-ureido]-21-oxolup-18-ene] | < 199 | –
14 | CC(C)C1=C2[C@H]3CC[C@@H]4[C@@]5(C)CC[C@H](OC(=O)CC(C)(C)C(=O)O)C(C)(C)[C@@H]5CC[C@@]4(C)[C@]3(C)CC[C@@]2(NC(=O)c2cnccn2)CC1=O [19-16, 3β-O-(3′,3′-Dimethylsuccinyl)-17β-(pyrazin-2-yl)amido-21-oxolup-18-ene] | < 199 | –
15 | CC(C)C1=C2C3CCC4[C@@]5(C)CC[C@H](OC(=O)CC(C)(C)C(=O)O)C(C)(C)C5CC[C@@]4(C)[C@]3(C)CC[C@@]2(NC(=O)c2nccn2C)CC1=O (stereo partly drawn) [19-26, 3β-O-(3′,3′-Dimethylsuccinyl)-17β-(1-methyl-1H-imidazole-2-amido)-21-oxolup-18-ene] | < 199 | –
16 | CC(C)C1=C2C3CCC4[C@@]5(C)CC[C@H](OC(=O)CC(C)(C)C(=O)O)C(C)(C)C5CC[C@@]4(C)[C@]3(C)CC[C@@]2(NC(=O)NCc2ccncn2)CC1=O (stereo partly drawn) [17-52, 3β-O-(3′,3′-Dimethylsuccinyl)-17β-[N′-(pyrimidin-4-ylmethyl)ureido]-21-oxolup-18-ene] | < 199 | –
17 | CC(C)C1=C2C3CCC4[C@@]5(C)CC[C@H](OC(=O)CC(C)(C)C(=O)O)C(C)(C)C5CC[C@@]4(C)[C@]3(C)CC[C@@]2(NC(=O)N[C@@H](C)C(F)(F)F)CC1=O (stereo partly drawn) [17-50, 3β-O-(3′,3′-Dimethylsuccinyl)-17β-[N′-((S)-2,2,2-trifluoro-1-methyl-ethyl)-ureido]-21-oxolup-18-ene] | < 199 | –
18 | CC(C)C1=C2C3CCC4[C@@]5(C)CC[C@H](OC(=O)CC(C)(C)C(=O)O)C(C)(C)C5CC[C@@]4(C)[C@]3(C)CC[C@@]2(NC(=O)NC2CCN(C)CC2)CC1=O (stereo partly drawn) [17-30, 3β-O-(3′,3′-Dimethylsuccinyl)-17β-[N′-(1-methyl-piperidin-4-yl)-ureido]-21-oxolup-18-ene] | < 199 | –
19 | CC(C)C1=C2C3CCC4[C@@]5(C)CC[C@H](OC(=O)CC(C)(C)C(=O)O)C(C)(C)C5CC[C@@]4(C)[C@]3(C)CC[C@@]2(NC(=O)C(C)(C)C)CC1=O (stereo partly drawn) [19-32, 3β-O-(3′,3′-Dimethylsuccinyl)-17β-tert-butylamido-21-oxolup-18-ene] | < 199 | –
20 | CC(C)NC(=O)N[C@@]12CC[C@]3(C)C(CCC4[C@@]5(C)CC[C@H](OC(=O)CC(C)(C)C(=O)O)C(C)(C)C5CC[C@]43C)C1=C(C(C)C)C(=O)C2 (stereo partly drawn) [17-4, 3β-O-(3′,3′-Dimethylsuccinyl)-17β-[N′-(isopropyl)ureido]-21-oxolup-18-ene] | < 199 | < 199
21 | CC(C)C1=C2[C@H]3CC[C@@H]4[C@@]5(C)CC[C@H](OC(=O)CC(C)(C)C(=O)O)C(C)(C)[C@@H]5CC[C@@]4(C)[C@]3(C)CC[C@@]2(NC(=O)Nc2ncccn2)CC1=O [17-32, 3β-O-(3′,3′-Dimethylsuccinyl)-17β-(N′-pyrimidin-2-yl-ureido)-21-oxolup-18-ene] | < 199 | –

— patent US8269026B2, “Lupane derivatives useful for treating HIV” (priority 2008, dated 2012)
